Source: US20260234165A1, “MACROCYCLIC COMPOUNDS, PREPARATION METHOD THEREFOR, AND USE THEREOF” (GENFLEET THERAPEUTICS (SHANGHAI) INC., priority 2004, published 2026)
Like-named read-outs stand apart in the source and are kept apart here.

Assay: Pharmacokinetic study in rats
Assay type: in vivo, Sprague-Dawley (SD) rats
Conditions: male SD rats; for clearance / CL: IV; for AUC / Cmax: PO (intragastric), dose 10 mg/kg
Text: A total of 6 healthy adult male Sprague-Dawley (SD) rats were provided by Zhejiang Vital River Laboratory Animal Technology Co., Ltd. For each test compound, 6 healthy adult male SD rats were selected and randomly divided into 2 groups: an intravenous administration (IV) group and an intragastric administration (PO) group. The LC-MS/MS method was used to determine the drug concentrations in the plasma of rats at different time points after intravenous and intragastric administration of the test compounds. This experiment was intended to investigate the pharmacokinetic performance of the test compounds in rats and to evaluate the pharmacokinetic characteristics. Each drug used in the experiment was prepared from the test compound powder: An appropriate amount of test compound powder was weighed out, and appropriate amounts of DMSO, a 10% aqueous Solutol HS 15 solution, and a 6% aqueous HP-β-CD solution were sequentially added according to a volume ratio of 5:10:85. The mixture was vortexed and sonicated until clarification. The final concentration of the drug in the IV group was 0.5 mg/mL, and the final concentration of the drug in the PO group was 1 mg/mL; the concentrations could be adjusted according to actual needs. For the drug in the PO group of Z504, an appropriate amount of test compound powder was weighed out, and an appropriate amount of 0.5% MC+0.2% Tween 80 aqueous solution was added. The mixture was well mixed by vortexing to give a 1 mg/mL homogeneous suspension: the concentration could be adjusted according to actual needs.
All experimental rats were fasted overnight, and food intake was resumed 4 h after administration. For the rats in the IV group, the administration volume was set at 2 mL/kg, with Z554 and Z915 administered at a dose of 0.5 mg/kg and the other compounds at a dose of 1 mg/kg. For the rats in the PO group, the administration volume was 10 mL/kg and the dose was 10 mg/kg. The administration amount was adjusted according to the body weight of the rats on the day of administration. In the experiment, blood samples were collected from the rats in the IV group at multiple time points (0.0833 h, 0.25 h, 0.5 h, 1 h, 2 h, 4 h, 7 h, and 24 h) after administration, while blood samples were collected from the PO group at 0.25 h, 0.5 h, 1 h, 2 h, 4 h, 7 h, and 24 h after administration, with approximately 100 μL collected each time via the orbital blood collection method.
The blood samples were placed in centrifuge tubes containing EDTA-K2 and centrifuged at 8000 rpm for 4 min within 30 min to separate the supernatant plasma. The resulting plasma samples were stored at −20° C. for later use. For sample analysis, 20 μL of each of plasma samples and calibration standards was added to a 96-well plate, and 160 μL of acetonitrile containing 100 ng/mL tolbutamide was added. The samples were vortexed for 5 min for uniform mixing, and then centrifuged at 4000 rpm for 15 min. After the centrifugation was completed, 50 μL of supernatant was added to a 96-well plate containing 150 μL of deionized water. The plate was then sealed and shaken for uniform mixing. Sample analysis was performed by LC-MS/MS.
The sampling volume could be adjusted according to actual needs, but the final concentration should be kept unchanged.

[1] = Sprague-Dawley, rat, plasma, dose 1 mg/kg
[2] = Sprague-Dawley, rat, plasma, read-out: AUC
[3] = Sprague-Dawley, rat, plasma, read-out: Cmax
[4] = Sprague-Dawley, rat, plasma, dose 0.5 mg/kg

Structure (SMILES)	clearance [1] [mL/min/kg]	AUC [2] [ng·h/mL]	Cmax [3] [ng/mL]	CL (dose 1 mg/kg) [mL/min/kg]	AUC [ng·h/mL]	Cmax [ng/mL]	clearance [4] [mL/min/kg]
CCn1c(-c2cc(C#C[C@@H]3COCCN3C)cnc2[C@H](C)OC)c2c3cc(ccc31)-c1csc(n1)C[C@H](NC(=O)[C@H]1[C@H](C)[C@@H]1C)C(=O)N1CCC[C@H](N1)C(=O)OCC(C)(C)C2 (atropisomer, axis not shown; (Ra)) [Compound Z672, (1r,2R,3S)—N-((6^3S,4S,Z)-1^1-ethyl-(Ra)-1^2-(2-((S)-1-methoxyethyl)-5-(((R)-4-methylmorpholin-3-yl)ethynyl)pyridin-3-yl)-10,10-dimethyl-5,7-dioxo-6^1,6^2,6^3,6^4,6^5,6^6hexahydro-1^1H-8-oxa-2(4,2)-thiazola-1(5,3)-indola-6(1,3)-pyridazinacycloundecaphane-4-yl)-2,3-dimethylcyclopropane-1-carboxamide]	11.8	2940	738				
CO[C@@H](C)c1ncc(C#CCN2CCCOCC2)cc1-c1c2c3cc(ccc3n1CC(F)(F)F)-c1csc(n1)C[C@H](NC(=O)[C@H]1[C@H](C)[C@@H]1C)C(=O)N1CCC[C@H](N1)C(=O)OCC(C)(C)C2 (atropisomer, axis not shown; (Ra)) [Compound Z700, N-((6^3S,4S,Z)-1^1-(2,2,2-trifluoroethyl)-(Ra)-1^2-(2-((S)-1-methoxyethyl)-(5-(3-(1,4-oxazepan-4-yl)prop-1-yn-1-yl))-pyridin-3-yl)-10,10-dimethyl-5,7-dioxo-6^1,6^2,6^3,6^4,6^5,6^6-hexahydro-1^1H-8-oxa-2(4,2)-thiazola-1(5,3)-indola-6(1,3)-pyridazinacycloundecaphane-4-yl)-2,3-dimethylcyclopropane-1-carboxamide]				7.66	3259	681	
CCn1c(-c2cc(C#CCN3C4CCC3COC4)cnc2[C@H](C)OC)c2c3cc(ccc31)-c1csc(n1)C[C@H](NC(=O)[C@H]1[C@H](C)[C@@H]1C)C(=O)N1CCC[C@H](N1)C(=O)OCC(C)(C)C2 (atropisomer, axis not shown; (Ra)) [Compound Z711, (1r,2R,3S)—N-((6^3S,4S,Z)—(Ra)-1^2-(5-(3-(3-oxa-8-azabicyclo[3.2.1]octan-8-yl)prop-1-yn-1-yl)-2-((S)-1-methoxyethyl)pyridin-3-yl)-1^1-ethyl-10,10-dimethyl-5,7-dioxo-6^1,6^2,6^3,6^4,6^5,6^6-hexahydro-1^1H-8-oxa-2(4,2)-thiazola-1(5,3)-indola-6(1,3)-pyridazinacycloundecaphane-4-yl)-2,3-dimethylcyclopropane-1-carboxamide]				3.82	8876	1867	
CCn1c(-c2cc(C#CCN3CCC(C(F)(F)F)CC3)cnc2[C@H](C)OC)c2c3cc(ccc31)-c1csc(n1)C[C@H](NC(=O)[C@H]1[C@H](C)[C@@H]1C)C(=O)N1CCC[C@H](N1)C(=O)OCC(C)(C)C2 (atropisomer, axis not shown; (Ra)) [Compound Z778]	5.31	4020	702				
CCn1c(-c2cc(C#CCN(C)CCOC)cnc2[C@H](C)OC)c2c3cc(ccc31)-c1csc(n1)C[C@H](NC(=O)[C@H]1[C@H](C)[C@@H]1C)C(=O)N1CCC[C@H](N1)C(=O)OCC(C)(C)C2 (atropisomer, axis not shown; (Ra)) [Compound Z788]				3.58	8529	2110	
CCn1c(-c2cc(C#CCN3CCN(C)C(=O)C3)cnc2[C@H](C)OC)c2c3cc(ccc31)-c1csc(n1)C[C@H](NC(=O)[C@H]1[C@H](C)[C@@H]1C)C(=O)N1CCC[C@H](N1)C(=O)OCC(C)(C)C2 (atropisomer, axis not shown; (Ra)) [Compound Z793]	3.16	5920	2040				
CCn1c(-c2cc(C#CCN3CCOC[C@H]3C)cnc2[C@H](C)OC)c2c3cc(ccc31)-c1csc(n1)C[C@H](NC(=O)[C@H]1[C@H](C)[C@@H]1C)C(=O)N1CCCC(N1)C(=O)OCC(C)(C)C2 (atropisomer, axis not shown; (Ra)) [Compound Z813]				14.9	1643	401	
CCn1c(-c2cc(C#CCN3CCS(=O)(=O)CC3)cnc2[C@H](C)OC)c2c3cc(ccc31)-c1csc(n1)C[C@H](NC(=O)[C@H]1[C@H](C)[C@@H]1C)C(=O)N1CCC[C@H](N1)C(=O)OCC(C)(C)C2 (atropisomer, axis not shown; (Ra)) [Compound Z838, (1r,2R,3S)—N-((6^3S,4S,Z)—(Ra)-1^2-(5-(3-(1,1-dioxidothiomorpholino)prop-1-yn-1-yl)-2-((S)-1-methoxyethyl)pyridin-3-yl)-1^1-ethyl-10,10-dimethyl-5,7-dioxo-6^1,6^2,6^3,6^4,6^5,6^6-hexahydro-1^1H-8-oxa-2(4,2)-thiazola-1(5,3)-indola-6(1,3)-pyridazinacycloundecaphane-4-yl)-2,3-dimethylcyclopropane-1-carboxamide]	2.51	3900	1400				
CCn1c(-c2cc(C#CCN3CCS(=O)(=O)CC3)cnc2[C@H](C)OC)c2c3cc(ccc31)-c1csc(n1)C[C@H](Nc1nnc3cc(C)ccn13)C(=O)N1CCC[C@H](N1)C(=O)OCC(C)(C)C2 (atropisomer, axis not shown; (Ra)) [Compound Z911, (6^3S,4S,Z)—(Ra)-1^2-(5-(3-(1,1-dioxidothiomorpholino)prop-1-yn-1-yl)-2-((S)-1-methoxyethyl)pyridin-3-yl)-1^1-ethyl-10,10-dimethyl-4-((7-methyl-[1,2,4]triazolo[4,3-a]pyridin-3-yl)amino)-6^1,6^2,6^3,6^4,6^5,6^6-hexahydro-1^1H-8-oxa-2(4,2)-thiazola-1(5,3)-indola-6(1.3)-pyridazinacycloundecaphane-5,7-dione]	0.41	2540	427				
CCn1c(-c2cc(C#CCN3CCCOCC3)cnc2[C@H](C)OC)c2c3cc(ccc31)-c1csc(n1)C[C@H](NC(=O)CC1CC1)C(=O)N1CCC[C@H](N1)C(=O)OCC(C)(C)C2 (atropisomer, axis not shown; (Ra)) [Compound Z915]		6840	1730				6
CCn1c(-c2cc(C#CCN3CCCOCC3)cnc2C(C)C)c2c3cc(ccc31)-c1csc(n1)C[C@H](NC(=O)[C@H]1[C@H](C)[C@@H]1C)C(=O)N1CCC[C@H](N1)C(=O)OCC(C)(C)C2 (atropisomer, axis not shown; (Sa)) [Compound Z811-2, (1r,2R,3S)—N-((6^3S,4S,Z)—(Sa)-1-(5-(3-(1,4-oxazepan-4-yl)prop-1-yn-1-yl)-2-isopropylpyridin-3-yl)-1^1-ethyl-10,10-dimethyl-5,7-dioxo-6^1,6^2,6^3,6^4,6^5,6^6-hexahydro-1^1H-8-oxa-2(4,2)-thiazola-1(5,3)-indola-6(1,3)-pyridazinacycloundecaphane-4-yl)-2,3-dimethylcyclopropane-1-carboxamide]				1.14	29002	4303	
CCn1c(-c2cc(C#CCN3CCCOCC3)cnc2[C@H](C)OC)c2c3cc(ccc31)-c1csc(n1)C[C@H](NC(=O)[C@H]1[C@H](C)[C@@H]1C)C(=O)N1CCC[C@H](N1)C(=O)OCC(C)(C)C2 (single isomer, unassigned) [Compound Z504]	4	5320	605				
CCn1c(-c2cc(C#CCN3CCC3)cnc2[C@H](C)OC)c2c3cc(ccc31)-c1csc(n1)C[C@H](NC(=O)[C@H]1[C@H](C)[C@@H]1C)C(=O)N1CCC[C@H](N1)C(=O)OCC(C)(C)C2 (single isomer, unassigned) [Compound Z554]		16600	2780				2.52
CCn1c(-c2cc(C#CCN3CCCOCC3)cnc2[C@H](C)OC)c2c3cc(ccc31)-c1csc(n1)C[C@H](NC(=O)[C@H]1C[C@@H]1C)C(=O)N1CCC[C@H](N1)C(=O)OCC(C)(C)C2 (single isomer, unassigned) [Compound Z604]	2.46	14600	3010				
